From US6784137B2, “6-aryl-4-aminopicolinates and their use as herbicides” (Dow AgroSciences LLC, priority 2001, dated 2004)
Like-named read-outs stand apart in the source and are kept apart here.

Columns and labels:
[1] = system: Giant Foxtail (Setaria faberi); experiment: Preemergence herbicidal activity, soil spray; type: in vivo; conditions: Table 5, visual score after 3 weeks
Excerpt: (§1) Seeds of the desired test plant species were planted in a soil matrix prepared by mixing a loam soil (43 percent silt, 19 percent clay, and 38 percent sand, with a pH of about 8.1 and an organic matter content of about 1.5 percent) and sand in a 70 to 30 ratio. The soil matrix was contained in plastic pots with a surface area of 113 square centimeters. When required to ensure good germination and healthy plants, a fungicide treatment and/or other chemical or physical treatment was applied. A weighed amount, determined by the highest rate to be tested, of each test compound was placed in a 20 mL glass vial and was dissolved in 4 mL of a 97:3 v/v (volume/volume) mixture of acetone and dimethyl sulfoxide to obtain concentrated stock solutions. […] The stock solutions obtained were diluted with a 99.9:0.1 mixture of water and Tween® 155 surfactant to obtain application solutions of known concentration. The solutions containing the highest concentration to be tested were prepared by diluting 2 mL aliquots of the stock solution with 15 mL of the mixture and lower concentrations were prepared by serial dilution of the stock solution. A 2.5 mL aliquot of each solution of known concentration was sprayed evenly onto the soil surface (113 sq. cm) of each seeded pot using a Cornwall 5.0 mL glass syringe fitted with a TeeJet TN-3 hollow cone nozzle to obtain thorough coverage of the soil in each pot. Control pots were sprayed in the same manner with the aqueous mixture. The treated pots and control pots were placed in a greenhouse maintained with an approximate 15 hr photoperiod and temperatures of about 23-29° C. during the day and 22-28° C. during the night. Nutrients and water were added on a regular basis and supplemental lighting was provided with overhead metal halide 1000-Watt lamps as necessary. The water was added by top-irrigation.

[2] = system: Lambsquarter (Chenopodium album); experiment: Preemergence herbicidal activity, soil spray; type: in vivo; conditions: Table 5, visual score after 3 weeks
Excerpt: as §1

[3] = system: Pigweed (redroot) (Amaranthus retroflexus); experiment: Preemergence herbicidal activity, soil spray; type: in vivo; conditions: Table 5, visual score after 3 weeks
Excerpt: as §1

[4] = system: Crabgrass(large) (Digitaria sanguinalis); experiment: Preemergence herbicidal activity, soil spray; type: in vivo; conditions: Table 5, visual score after 3 weeks
Excerpt: as §1

[5] = system: Yellow nutsedge (Cyperus esculentus); experiment: Postemergence herbicidal activity, greenhouse spray; type: in vivo; conditions: visual score after 2 weeks; for pest or weed control at 500 ppm: rate 500 ppm
Experimental: (§2) When required to ensure good germination and healthy plants, a fungicide treatment and/or other chemical or physical treatment was applied. The plants were grown for 7-21 days in a greenhouse with an approximate 15 hr photoperiod which was maintained at about 23-29° C. during the day and 22-28° C. during the night. Nutrients and water were added on a regular basis and supplemental lighting was provided with overhead metal halide 1000-Watt lamps as necessary. The plants were employed for testing when they reached the first or second true leaf stage. A weighed amount, determined by the highest rate to be tested, of each test compound was placed in a 20 mL glass vial and was dissolved in 4 mL of a 97:3 v/v (volume/volume) mixture of acetone and dimethyl sulfoxide (DMSO) to obtain concentrated stock solutions. […] The concentrated stock solutions obtained were diluted with an aqueous mixture containing acetone, water, isopropyl alcohol, DMSO, At plus 411 F crop oil concentrate, and Triton X-155 surfactant in a 48.5:39:10:1.5:1.0:0.02 v/v ratio to obtain spray solutions of known concentration. The solutions containing the highest concentration to be tested were prepared by diluting 2 mL aliquots of the stock solution with 13 mL of the mixture and lower concentrations were prepared by serial dilution of the stock solution. Approximately 1.5 mL aliquots of each solution of known concentration were sprayed evenly onto each of the test plant pots using a DeVilbiss atomizer driven by compressed air pressure of 2 to 4 psi (140 to 280 kiloPascals) to obtain thorough coverage of each plant. Control plants were sprayed in the same manner with the aqueous mixture. […] The treated plants and control plants were placed in a greenhouse as described above and watered by sub-irrigation to prevent wash-off of the test compounds.

[6] = system: Cocklebur (Xanthium strumarium); experiment: as above; type: in vivo; conditions: visual score after 2 weeks; for pest or weed control at 500 ppm: rate 500 ppm, 0 no injury, 100 complete kill
Experimental: as §2

[7] = system: Lambsquarter (Chenopodium album); experiment: as above; type: in vivo; conditions: visual score after 2 weeks; for pest or weed control at 500 ppm: rate 500 ppm
Experimental: as §2

[8] = system: Barnyardgrass (Echinochloa crus-galli); experiment: as above; type: in vivo; conditions: visual score after 2 weeks; for pest or weed control at 500 ppm: rate 500 ppm
Experimental: as §2

[9] = Setaria faberi, pre-emergence, 504 h, rate 140 ppm, read-out: Pre-emergent % control SETFA
[10] = Chenopodium album, pre-emergence, 504 h, rate 140 ppm, read-out: Pre-emergent % control CHEAL
[11] = Amaranthus retroflexus, pre-emergence, 504 h, rate 140 ppm, read-out: Pre-emergent % control AMARE
[12] = Digitaria sanguinalis, pre-emergence, 504 h, rate 140 ppm, read-out: Pre-emergent % control DIGSA
[13] = Cyperus, post-emergence, 336 h, Table 1, read-out: Post-emergent % control CYPES
[14] = Cyperus, post-emergence, 336 h, Table 2, rate 125 ppm, read-out: Post-emergent % control CYPES
[15] = Xanthium strumarium, post-emergence, 336 h, Table 1, read-out: Post-emergent % control XANST
[16] = Xanthium strumarium, post-emergence, 336 h, Table 2, rate 125 ppm, read-out: Post-emergent % control XANST
[17] = Chenopodium album, post-emergence, 336 h, Table 1, read-out: Post-emergent % control CHEAL
[18] = Chenopodium album, post-emergence, 336 h, Table 2, rate 125 ppm, read-out: Post-emergent % control CHEAL
[19] = Echinochloa crus-galli, post-emergence, 336 h, Table 1, read-out: Post-emergent % control ECHCG
[20] = Echinochloa crus-galli, post-emergence, 336 h, Table 2, rate 125 ppm, read-out: Post-emergent % control ECHCG
[21] = Setaria faberi, pre-emergence, 504 h, rate 560 ppm, read-out: Pre-emergent % control SETFA
[22] = Chenopodium album, pre-emergence, 504 h, rate 560 ppm, 100 complete kill or no germination, read-out: Pre-emergent % control CHEAL
[23] = Amaranthus retroflexus, pre-emergence, 504 h, rate 560 ppm, read-out: Pre-emergent % control AMARE
[24] = Digitaria sanguinalis, pre-emergence, 504 h, rate 560 ppm, read-out: Pre-emergent % control DIGSA
[25] = rate 560 ppm, 100 complete kill or no germination

In the case of `Nc1cc(-c2ccc(F)c(Cl)c2)nc(C(=O)O)c1Cl` [Compound 151, 4-Amino-3-chloro-6-(3-chloro-4-fluorophenyl)pyridine-2-carboxylic acid], the melting point is reported as 183 to 184 °C, the pest or weed control at 140 ppm [1, 9] is reported as 100% and the pest or weed control at 140 ppm [2, 10] is reported as 100%. For the same compound, the pest or weed control at 140 ppm [3, 11] was 100%, the pest or weed control at 140 ppm [4, 12] was 100% and the pest or weed control at 500 ppm [5, 13] was 85%. The pest or weed control at 125 ppm [5, 14] was 90%, the pest or weed control at 500 ppm [6, 15] was 100% and the pest or weed control at 125 ppm [6, 16] was 100%. The pest or weed control at 500 ppm [7, 17] was 100%, the pest or weed control at 125 ppm [7, 18] was 100% and the pest or weed control at 500 ppm [8, 19] was 100%. The pest or weed control at 125 ppm [8, 20] was 85%.
`COC(=O)c1nc(-c2ccc3c(c2)OCO3)c(F)c(N)c1Cl` [Compound 84, Methyl 4-amino-3-chloro-5-fluoro-6-(3,4-methylenedioxyphenyl)pyridine-2-carboxylate] showed a melting point of 160 °C, a pest or weed control at 560 ppm [1, 21] of 100% and a pest or weed control at 560 ppm [2, 22] of 100%. For the same compound, the pest or weed control at 560 ppm [3, 23] was 100%, the pest or weed control at 560 ppm [4, 24] was 100% and the pest or weed control at 250 ppm ([5]; Cyperus, post-emergence, 336 h, Table 1, rate 250 ppm, read-out: Post-emergent % control CYPES) was 100%. The pest or weed control at 125 ppm [5, 14] was 90%, the pest or weed control at 250 ppm ([6]; Xanthium strumarium, post-emergence, 336 h, Table 1, rate 250 ppm, read-out: Post-emergent % control XANST) was 100% and the pest or weed control at 125 ppm [6, 16] was 100%. For the same compound, the pest or weed control at 250 ppm ([7]; Chenopodium album, post-emergence, 336 h, Table 1, rate 250 ppm, read-out: Post-emergent % control CHEAL) was 100%, the pest or weed control at 125 ppm [7, 18] was 100% and the pest or weed control at 250 ppm ([8]; Echinochloa crus-galli, post-emergence, 336 h, Table 1, rate 250 ppm, read-out: Post-emergent % control ECHCG) was 98%. For the same compound, the pest or weed control at 125 ppm [8, 20] was 98%.
Compound `Nc1c(F)c(-c2ccc(Cl)cc2)nc(C(=O)O)c1Cl` [Compound 173, 4-Amino-3-chloro-5-fluoro-6-(4-chlorophenyl)pyridine-2-carboxylic acid] has a pest or weed control at 560 ppm [1, 21] of 100%, a pest or weed control at 560 ppm [2, 22] of 100% and a pest or weed control at 560 ppm [3, 23] of 100%. The pest or weed control at 560 ppm [4, 24] was 100%, the pest or weed control at 500 ppm [5, 13] was 100% and the pest or weed control at 500 ppm [6, 15] was 100%. For the same compound, the pest or weed control at 500 ppm [7, 17] was 100% and the pest or weed control at 500 ppm [8, 19] was 100%.
For `COC(=O)c1nc(-c2ccc(C)cc2)cc(-n2cccc2)c1Cl` [Compound 89, Methyl 4-N-pyrolyl-3-chloro-6-(4-methylphenyl)pyridine-2-carboxylate], the “Pre-emergent % control SETFA” value ([1]; rate 560 ppm) was 85%, the “Pre-emergent % control CHEAL” value [2, 25] was 100% and the “Pre-emergent % control AMARE” value ([3]; rate 560 ppm) was 100%. For the same compound, the “Pre-emergent % control DIGSA” value ([4]; rate 560 ppm) was 90%, the “Post-emergent % control CYPES” value ([5]; Table 1, rate 250 ppm) was 50% and the “Post-emergent % control XANST” value ([6]; Table 1, rate 250 ppm) was 100%. The “Post-emergent % control CHEAL” value ([7]; Table 1, rate 250 ppm) was 100% and the “Post-emergent % control ECHCG” value ([8]; Table 1, rate 250 ppm) was 90%.
In the case of `Nc1cc(-c2ccc(C(F)(F)F)cc2Cl)nc(C(=O)O)c1Cl` [Compound 184, 4-Amino-3-chloro-6-(2-chloro-4-(trifluoromethyl)phenyl)pyridine-2-carboxylic acid], the pest or weed control at 140 ppm [1, 9] is reported as 70%, the pest or weed control at 140 ppm [2, 10] is reported as 90% and the pest or weed control at 140 ppm [3, 11] is reported as 85%. It also gave a pest or weed control at 140 ppm [4, 12] of 90%, a pest or weed control at 125 ppm ([5]; Cyperus, post-emergence, 336 h, Table 1, rate 125 ppm, read-out: Post-emergent % control CYPES) of 40% and a pest or weed control at 125 ppm ([6]; Xanthium strumarium, post-emergence, 336 h, Table 1, rate 125 ppm, read-out: Post-emergent % control XANST) of 100%. It also gave a pest or weed control at 125 ppm ([7]; Chenopodium album, post-emergence, 336 h, Table 1, rate 125 ppm, read-out: Post-emergent % control CHEAL) of 70% and a pest or weed control at 125 ppm ([8]; Echinochloa crus-galli, post-emergence, 336 h, Table 1, rate 125 ppm, read-out: Post-emergent % control ECHCG) of 70%.
`Nc1cc(-c2ccc(Cl)c(C(F)(F)F)c2)nc(C(=O)O)c1Cl` [Compound 179, 4-Amino-3-chloro-6-(4-chloro-3-(trifluoromethyl)phenyl)pyridine-2-carboxylic acid] showed a melting point of 176 °C, a pest or weed control at 560 ppm [1, 21] of 98% and a pest or weed control at 560 ppm [2, 22] of 100%. The pest or weed control at 560 ppm [3, 23] was 100% and the pest or weed control at 560 ppm [4, 24] was 98%.
For `COC(=O)c1nc(-c2ccc(Cl)cc2F)cc(N)c1Cl` [Compound 59, Methyl 4-amino-3-chloro-6-(4-chloro-2-fluorophenyl)pyridine-2-carboxylate], the melting point was 107 to 109 °C, the pest or weed control at 280 ppm ([1]; Setaria faberi, pre-emergence, 504 h, rate 280 ppm, read-out: Pre-emergent % control SETFA) was 100% and the pest or weed control at 280 ppm ([2]; Chenopodium album, pre-emergence, 504 h, rate 280 ppm, read-out: Pre-emergent % control CHEAL) was 100%. For the same compound, the pest or weed control at 280 ppm ([3]; Amaranthus retroflexus, pre-emergence, 504 h, rate 280 ppm, read-out: Pre-emergent % control AMARE) was 100%, the pest or weed control at 280 ppm ([4]; Digitaria sanguinalis, pre-emergence, 504 h, rate 280 ppm, read-out: Pre-emergent % control DIGSA) was 100% and the pest or weed control at 500 ppm [6, 15] was 100%. It also gave a pest or weed control at 500 ppm [7, 17] of 100% and a pest or weed control at 500 ppm [8, 19] of 80%.
For `Cc1ccc(-c2cc(-n3cccc3)c(Cl)c(C(=O)O)n2)cc1` [Compound 180, 3-chloro-6-(4-methylphenyl)-4-(N-pyrolyl)pyridine-2-carboxylic acid], the “Pre-emergent % control SETFA” value ([1]; rate 560 ppm) was 100%, the “Pre-emergent % control CHEAL” value [2, 25] was 100% and the “Pre-emergent % control AMARE” value ([3]; rate 560 ppm) was 100%. For the same compound, the “Pre-emergent % control DIGSA” value ([4]; rate 560 ppm) was 95%, the “Post-emergent % control CYPES” value ([5]; Table 1, rate 250 ppm) was 30% and the “Post-emergent % control XANST” value ([6]; Table 1, rate 250 ppm) was 80%. The “Post-emergent % control CHEAL” value ([7]; Table 1, rate 250 ppm) was 100% and the “Post-emergent % control ECHCG” value ([8]; Table 1, rate 250 ppm) was 70%.
For `Nc1c(F)c(-c2ccc(C(F)(F)F)cc2)nc(C(=O)O)c1Cl` [Compound 172, 4-Amino-3-chloro-5-fluoro-6-(4-trifluorophenyl)pyridine-2-carboxylic acid], the “Pre-emergent % control SETFA” value ([1]; rate 140 ppm) was 90%, the “Pre-emergent % control CHEAL” value ([2]; rate 140 ppm) was 90% and the “Pre-emergent % control AMARE” value ([3]; rate 140 ppm) was 95%. For the same compound, the “Pre-emergent % control DIGSA” value ([4]; rate 140 ppm) was 95%, the “Post-emergent % control CYPES” value ([5]; Table 1, rate 125 ppm) was 90% and the “Post-emergent % control XANST” value ([6]; Table 1, rate 125 ppm) was 100%. The “Post-emergent % control CHEAL” value ([7]; Table 1, rate 125 ppm) was 90% and the “Post-emergent % control ECHCG” value ([8]; Table 1, rate 125 ppm) was 90%.
